In assay [1] the test system is Influenza A virus. The assay is described as follows: Antiviral activity against Influenza A virus (A/Washington/01/2007 (H3N2)) measured in MDCK cells by NA inhibition assay. In kind it is functional, organism-based.
Assay [2] concerns Influenza A virus. The assay is described as follows: Antiviral activity against Influenza A virus (A/Washington/01/2007 (H3N2)) measured in MDCK cells by fluorescent NA inhibition assay. It is filed as functional, organism-based.

This is an account of results in ChEMBL document CHEMBL1255450, “Detection of E119V and E119I mutations in influenza A (H3N2) viruses isolated from an immunocompromised patient: challenges in diagnosis of oseltamivir resistance” (Antimicrob Agents Chemother, 2010).

In the case of `C/C=C\[C@@H]1C[C@H](C(=O)O)N[C@H]1[C@@H](NC(C)=O)[C@](C)(CCC)OC`, the IC50 in the assay with Influenza A virus [1] is 0.74 nM; in the assay with Influenza A virus [2], 1.22 nM.

Take `CCOC(=O)C1=C[C@@H](OC(CC)CC)[C@H](NC(C)=O)[C@@H](N)C1` [OSELTAMIVIR]: the IC50 with Influenza A virus [1] is 0.16 nM; with Influenza A virus [2], 0.44 nM.

For `CCC(CC)[C@H](NC(C)=O)[C@@H]1[C@H](O)[C@@H](C(=O)O)C[C@H]1NC(=N)N` [PERAMIVIR ANHYDROUS], the IC50 with Influenza A virus [1] was 0.28 nM; with Influenza A virus [2], 0.5 nM.
